Experimental data taken from patent US20260102501A1, “ANTI-CANCER NUCLEAR HORMONE RECEPTOR-TARGETING COMPOUNDS” (Nuvation Bio Inc., priority 2022, published 2026).

How the values were obtained:
T47D cells = test: Cell viability assay (CellTiterGlo); type: cell-based; conditions: Homo sapiens, 144 h, read-out: T47D (IC50, nM)
IEC6 cells = test: Cell viability assay (CellTiterGlo); conditions: Rattus norvegicus, IEC-6, 144 h, read-out: IEC-6 (IC50, nM)
[1] = target: T1, GR (cytosol from IM-9 cells) (Homo sapiens, UniProt P04150); test: GR binding assay (3H-Dexamethasone displacement)
T1 sequence (P04150 1-777): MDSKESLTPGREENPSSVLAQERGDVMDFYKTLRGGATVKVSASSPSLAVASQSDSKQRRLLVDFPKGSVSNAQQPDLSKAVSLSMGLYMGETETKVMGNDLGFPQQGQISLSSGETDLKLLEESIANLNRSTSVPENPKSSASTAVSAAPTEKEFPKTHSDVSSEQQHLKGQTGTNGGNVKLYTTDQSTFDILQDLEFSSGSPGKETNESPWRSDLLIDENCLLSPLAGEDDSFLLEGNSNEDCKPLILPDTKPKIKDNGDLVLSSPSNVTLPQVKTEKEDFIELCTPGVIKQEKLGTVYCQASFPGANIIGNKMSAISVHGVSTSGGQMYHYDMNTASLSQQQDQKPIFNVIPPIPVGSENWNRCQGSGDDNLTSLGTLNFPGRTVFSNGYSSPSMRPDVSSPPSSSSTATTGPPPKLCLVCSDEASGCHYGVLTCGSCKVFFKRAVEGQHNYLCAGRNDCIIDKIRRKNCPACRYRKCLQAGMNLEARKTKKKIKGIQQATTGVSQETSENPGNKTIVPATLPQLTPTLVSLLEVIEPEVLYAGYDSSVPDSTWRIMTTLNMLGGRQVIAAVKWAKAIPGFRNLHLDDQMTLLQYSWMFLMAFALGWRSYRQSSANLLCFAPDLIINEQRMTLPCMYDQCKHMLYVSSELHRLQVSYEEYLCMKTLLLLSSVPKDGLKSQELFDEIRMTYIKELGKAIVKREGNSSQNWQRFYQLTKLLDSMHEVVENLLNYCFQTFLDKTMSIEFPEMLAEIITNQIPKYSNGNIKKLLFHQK

[2] = target: T2, AR (cytosol from LnCaP cells) (Homo sapiens, UniProt P10275, T878A); test: AR binding assay (3H-R1881 displacement)
T2 sequence (P10275 1-920 T878A): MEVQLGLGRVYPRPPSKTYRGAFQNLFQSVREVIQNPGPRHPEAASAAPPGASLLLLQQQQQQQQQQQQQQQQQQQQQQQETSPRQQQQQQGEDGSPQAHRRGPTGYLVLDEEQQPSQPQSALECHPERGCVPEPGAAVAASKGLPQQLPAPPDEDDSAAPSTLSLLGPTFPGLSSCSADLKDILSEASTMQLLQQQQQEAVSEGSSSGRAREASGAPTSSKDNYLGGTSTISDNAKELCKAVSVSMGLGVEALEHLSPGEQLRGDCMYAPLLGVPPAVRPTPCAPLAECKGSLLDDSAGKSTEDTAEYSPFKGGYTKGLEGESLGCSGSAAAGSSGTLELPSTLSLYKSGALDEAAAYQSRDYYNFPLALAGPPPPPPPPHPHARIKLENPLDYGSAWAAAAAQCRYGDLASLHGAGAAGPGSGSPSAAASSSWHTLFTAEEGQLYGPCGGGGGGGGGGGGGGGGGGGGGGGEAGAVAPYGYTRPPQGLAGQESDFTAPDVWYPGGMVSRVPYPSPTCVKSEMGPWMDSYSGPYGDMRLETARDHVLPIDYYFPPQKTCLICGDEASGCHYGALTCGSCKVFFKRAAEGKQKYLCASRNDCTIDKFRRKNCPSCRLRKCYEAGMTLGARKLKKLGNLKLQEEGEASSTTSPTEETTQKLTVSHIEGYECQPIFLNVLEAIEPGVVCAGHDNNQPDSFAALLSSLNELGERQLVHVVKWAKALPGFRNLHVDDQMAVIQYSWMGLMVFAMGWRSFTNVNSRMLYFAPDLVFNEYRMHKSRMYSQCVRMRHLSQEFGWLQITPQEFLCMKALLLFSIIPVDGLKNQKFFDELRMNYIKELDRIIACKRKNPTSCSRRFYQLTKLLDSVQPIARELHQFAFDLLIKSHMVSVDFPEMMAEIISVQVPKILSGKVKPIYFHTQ
Experimental: The plate was then centrifuged at 3000 rpm for 30 minutes at 4° C.

[3] = target: T3, Progesterone PR-B receptors from human breast carcinoma T47D cells (Homo sapiens, UniProt P06401); test: PR binding assay ([3H] Progesterone displacement)
T3 sequence (P06401 1-933): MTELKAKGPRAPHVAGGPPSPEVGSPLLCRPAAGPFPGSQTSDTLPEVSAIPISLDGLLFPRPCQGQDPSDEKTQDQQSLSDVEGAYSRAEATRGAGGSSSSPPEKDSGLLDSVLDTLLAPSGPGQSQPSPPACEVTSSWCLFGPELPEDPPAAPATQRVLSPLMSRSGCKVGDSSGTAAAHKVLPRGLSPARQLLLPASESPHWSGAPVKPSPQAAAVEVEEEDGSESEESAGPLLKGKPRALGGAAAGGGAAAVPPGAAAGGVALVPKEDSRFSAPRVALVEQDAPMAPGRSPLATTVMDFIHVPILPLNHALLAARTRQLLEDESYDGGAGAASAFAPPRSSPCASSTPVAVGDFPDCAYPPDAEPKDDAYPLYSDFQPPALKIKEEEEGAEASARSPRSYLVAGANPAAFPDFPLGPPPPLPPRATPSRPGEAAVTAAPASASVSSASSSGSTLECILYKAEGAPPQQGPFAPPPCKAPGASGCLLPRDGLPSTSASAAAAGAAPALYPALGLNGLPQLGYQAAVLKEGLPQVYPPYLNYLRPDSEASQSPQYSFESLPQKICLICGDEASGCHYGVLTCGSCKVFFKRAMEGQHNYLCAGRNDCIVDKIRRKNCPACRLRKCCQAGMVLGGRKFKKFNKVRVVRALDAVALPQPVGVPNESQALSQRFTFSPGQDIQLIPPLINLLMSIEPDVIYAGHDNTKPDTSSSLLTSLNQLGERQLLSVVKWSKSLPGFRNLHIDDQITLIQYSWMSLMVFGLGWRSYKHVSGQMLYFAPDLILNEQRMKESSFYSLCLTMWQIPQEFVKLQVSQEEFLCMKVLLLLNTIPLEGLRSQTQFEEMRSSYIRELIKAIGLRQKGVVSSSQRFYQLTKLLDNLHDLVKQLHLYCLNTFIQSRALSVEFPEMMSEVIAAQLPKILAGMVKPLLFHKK

[4] = target: T4, ligand binding domain of the glucocorticoid receptor (HEK293 cells stably expressing) (Homo sapiens, UniProt P04150); test: GR antagonism assay (luciferase reporter)
T4 sequence (P04150 524-758 limits assumed): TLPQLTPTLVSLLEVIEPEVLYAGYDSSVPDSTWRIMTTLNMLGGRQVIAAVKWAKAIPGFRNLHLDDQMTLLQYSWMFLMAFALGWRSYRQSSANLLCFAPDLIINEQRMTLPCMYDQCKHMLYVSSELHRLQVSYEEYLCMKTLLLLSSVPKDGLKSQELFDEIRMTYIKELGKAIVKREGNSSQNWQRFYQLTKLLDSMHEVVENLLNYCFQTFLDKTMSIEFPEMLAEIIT

LNCap cells = test: Cell viability assay (CellTiterGlo); type: cell-based; conditions: Homo sapiens, 144 h, read-out: LNCap (IC50, nM)
[5] = target: T5, Progesterone Receptor (PR)-LBD and coactivator peptide (Homo sapiens, UniProt P06401); test: PR coactivator antagonist assay; conditions: 2.5 nM PR-LBD, 10 nM progesterone-induced fluorescence response
T5 sequence (P06401 679-913 limits assumed): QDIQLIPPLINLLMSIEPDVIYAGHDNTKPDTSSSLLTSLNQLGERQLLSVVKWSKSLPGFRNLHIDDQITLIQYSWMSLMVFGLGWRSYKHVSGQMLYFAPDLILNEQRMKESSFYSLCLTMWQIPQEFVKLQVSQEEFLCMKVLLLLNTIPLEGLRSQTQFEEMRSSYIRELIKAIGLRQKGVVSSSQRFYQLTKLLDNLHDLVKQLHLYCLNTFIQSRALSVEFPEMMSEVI

CC[C@@]1(O)C(=O)OCc2c1cc1n(c2=O)Cc2cc3c(CN(C)C)c(OC(=O)N4CCN(CCCCCCCN(C)c5ccc([C@H]6C[C@@]7(C)[C@@H](CC[C@]7(OC(C)=O)C(C)=O)[C@@H]7CCC8=CC(=O)CCC8=C76)cc5)CC4)ccc3nc2-1 [Compound 6, (S)-10-((Dimethylamino)methyl)-4-ethyl-4-hydroxy-3,14-dioxo-3,4,12,14-tetrahydro-1H-pyrano[3′,4′:6,7]indolizino[1,2-b]quinolin-9-yl 4-(7-((4-((8S,11R,13S,14S,17R)-17-acetoxy-17-acetyl-13-methyl-3-oxo-2,3,6,7,8,11,12,13,14,15,16,17-dodecahydro-1H-cyclopenta[a]phenanthren-11-yl)phenyl)(methyl)amino)heptyl)piperazine-1-carboxylate] was tested, and the IC50 (T47D cells) was 10 to 100 nM, the IC50 (IEC6 cells) was > 1000 nM and the IC50 [1] was < 10 nM. For the same compound, the IC50 [2] was 10 to 100 nM, the IC50 [3] was < 10 nM and the IC50 [4] was 10 to 100 nM. For the same compound, the IC50 (LNCap cells) was 101 to 1000 nM and the PR antagonism [5] was “a (IC50 =< 10 nM)”.

CC[C@@]1(OC(=O)CN(C)C)C(=O)OCc2c1cc1n(c2=O)Cc2cc3c(CN(C)C)c(OC(=O)N4CCN(CCCCCCN(C)c5ccc([C@H]6C[C@@]7(C)[C@@H](CC[C@]7(OC(C)=O)C(C)=O)[C@@H]7CCC8=CC(=O)CCC8=C76)cc5)CC4)ccc3nc2-1 [Compound No. 14, (S)-10-((Dimethylamino)methyl)-4-((dimethylglycyl)oxy)-4-ethyl-3,14-dioxo-3,4,12,14-tetrahydro-1H-pyrano[3′,4′:6,7]indolizino[1,2-b]quinolin-9-yl 4-(6-((4-((8S,11R,13S,14S,17R)-17-acetoxy-17-acetyl-13-methyl-3-oxo-2,3,6,7,8,11,12,13,14,15,16,17-dodecahydro-1H-cyclopenta[a]phenanthren-11-yl)phenyl)(methyl)amino)hexyl)piperazine-1-carboxylate] was tested, and the IC50 (T47D cells) was 10 to 100 nM, the IC50 (IEC6 cells) was 10 to 100 nM and the IC50 [1] was < 10 nM. The IC50 [2] was 10 to 100 nM, the IC50 [3] was < 10 nM and the IC50 [4] was 10 to 100 nM. For the same compound, the IC50 (LNCap cells) was 101 to 1000 nM and the PR antagonism [5] was “a (IC50 =< 10 nM)”.

For CC[C@@]1(O)C(=O)OCc2c1cc1n(c2=O)Cc2cc3c(CN(C)C)c(OC(=O)N4C5CC4CN(CCCCCCN(C)c4ccc([C@H]6C[C@@]7(C)[C@@H](CC[C@]7(OC(C)=O)C(C)=O)[C@@H]7CCC8=CC(=O)CCC8=C76)cc4)C5)ccc3nc2-1 [Compound 3, (S)-10-((Dimethylamino)methyl)-4-ethyl-4-hydroxy-3,14-dioxo-3,4,12,14-tetrahydro-1H-pyrano[3′,4′:6,7]indolizino[1,2-b]quinolin-9-yl 3-(6-((4-((8S,11R,13S,14S,17R)-17-acetoxy-17-acetyl-13-methyl-3-oxo-2,3,6,7,8,11,12,13,14,15,16,17-dodecahydro-1H-cyclopenta[a]phenanthren-11-yl)phenyl)(methyl)amino)hexyl)-3,6-diazabicyclo[3.1.1]heptane-6-carboxylate], the IC50 (T47D cells) was 10 to 100 nM, the IC50 (IEC6 cells) was > 1000 nM and the IC50 [1] was < 10 nM. For the same compound, the IC50 [2] was 10 to 100 nM, the IC50 [3] was < 10 nM and the IC50 [4] was 10 to 100 nM. For the same compound, the IC50 (LNCap cells) was 101 to 1000 nM and the PR antagonism [5] was “a (IC50 =< 10 nM)”.
